This is an account of results in patent US20100093536A1, “CONTROL OF GRASSY WEEDS WITH VINYLGLYCINES AND VINYLGLYCINE-PRODUCING ORGANISMS” (THE STATE OF OREGON ACTING BY AND THROUGH THE STATE BOARD …, priority 2008, published 2010).

The structures appear in SMILES notation. “Also recorded” adds a separate entry of the source.

For series [1], the system named is Poa annua (annual bluegrass) seeds. Description: Standard GAF Bioassay System (Standard Poa Bioassay), seed germination scored after 7 days. The following applies: for GAF-like activity in the Standard Poa Bioassay System, in words: pure compounds; for GERMINATION SCORE: purified GAF. On the set-up: key to GERMINATION SCORE IN THE POA BIOASSAY (±Standard Error of the Mean) / GERMINATION SCORE (±Standard Error of the Mean): germination score, 0 = no germination to 4.0 = first true leaf emerged. It counts as in vivo. The procedure:
The seed of Poa annua (or other test seeds) were surface-sterilized by placing two to five grams of seeds in a 50 ml glass beaker, covering the seeds with a 50% (v/v) solution of H2SO4, and stirring vigorously for 5 minutes. The seed/acid mixture was filtered through a Gooch crucible and repeatedly rinsed with tap water to remove residual acid. The seeds were then placed in a beaker and covered with bleach (Clorox®, NaOCl, 5.25%) containing 1% (v/v) polyoxethylene sorbitan monolaurate (Tween®-20). The seeds were stirred for 5 minutes and then repeatedly rinsed with sterile deionized water and placed in a sterile Petri dish. The seeds were used immediately while wet or dried (spread in a thin layer and allowed to dry under a laminar flow hood with the Petri dish lid ajar for 4 to 8 hours) to prevent premature germination.
Bioassays for GAF activity were performed with Poa annua (annual bluegrass) seeds unless otherwise indicated. For each concentration of each test solution, 200 μl aliquots of solution were distributed to each of three wells of a sterile Costar® forty-eight well tissue culture plate (Corning® Costar® Number 3548). Three surface-sterilized Poa annua seeds were aseptically transferred to each well and submerged in the liquid, providing a total of nine observations for each concentration of each solution tested. The lid of the tissue culture plate was sealed with Parafilm® and the plate was placed in a germinator at 20° C. (8 hour day length at a light intensity of 50 μmol/m^2/s, 16 hour dark period) for seven days. Germination was scored on the basis of the following four-point system: • Score 0: No visible signs of germination. • Score 0.5: Seed coat split but plumule and coleorhiza are not visible. • Score 1.0: Plumule and coleorhiza visible. Plumule chlorotic and shorter than length of seed. Root not yet visible. • Score 1.5: Plumule still shorter than length of seed, but root is clearly visible. • Score 2.0: Plumule approximately equal in length to the seed. Root elongated. • Score 2.5: Plumule obviously longer than length of seed. First true leaf still enclosed in coleoptile. • Score 3.0: First true leaf emerged from coleoptile and green. Emerged portion of the leaf is obviously shorter than the coleoptile. • Score 3.5: First true leaf emerged from coleoptile and green. Emerged portion of the leaf is approximately equal in length to the coleoptile. • Score 4.0: First true leaf emerged from coleoptile and green. Emerged portion of the leaf is obviously longer than the coleoptile.

Series [2] concerns Poa annua seeds. Description: Soil-based test for GAF activity, Poa annua only. In kind it is in vivo. As to conditions: sprayed twice with 50 mL in 0.1% Tween 20, evaluated 12 days after first treatment. The protocol: (§1) Soil-based tests for GAF activity were performed as follows: Woodburn sandy loam obtained from a Willamette Valley site was used in all soil-based experiments. The soil was dried for two days at 100° F. and screened through a ⅛-inch mesh prior to use. All flats were lined with black ground cloth. Small half-flats (25×25 cm) were filled with 1200 grams of soil. Larger flats (25×50 cm) were filled with 2500 grams of soil. The soil in the flats was fully saturated with water and left to drain in a greenhouse mist chamber for two days prior to seeding.
Soil-based tests involving only Poa annua (annual bluegrass) were conducted in half-flats. A frame covering ½- inch around the margins of the flat was placed on the soil surface, and the soil area within the frame was seeded with 0.3 grams of Poa annua seeds (leaving a ½-inch unseeded border). The seeds were sprayed lightly with distilled water and placed in a growth chamber set at 20° C. with a photoperiod consisting of 8-hour days (50 μEinsteins) and 16-hour nights. […] The treatments were evaluated and photographic records taken 12 days after the initial treatment (14 days from seeding). […]
The effect of AVG on germination of seeds of Poa annua also was determined in a soil-based system using the protocol previously described. […]
The effect of AOA on the germination of Poa annua also was determined in a soil-based system. […]

The test system of series [3] is Poa annua seeds. As to the kind of experiment: Soil-based test with established perennial ryegrass seedlings: germination of Poa annua seeds. It counts as in vivo. The following applies: sprayed twice with 50 mL in 0.1% Tween 20, evaluated 12 days after first treatment. The procedure: as §1
(§2) Soil-based tests involving both Poa annua seeds and established perennial ryegrass (Lolium perenne) seedlings were conducted in full sized flats (25×50 cm). After preparation of the soil as described above, five rows of perennial ryegrass seed (0.19 grams seed/row) were planted parallel to the short axis of the flat. The flats were placed in a mist chamber in the greenhouse for one week, and then transferred to a greenhouse bench where they were watered once or twice daily (as needed) with a fogging nozzle for the next 13 days. The ryegrass seedlings were fertilized at the end of the first week on the greenhouse bench. […] The treatments were evaluated and photographic records taken 12 days after the initial treatment (14 days from seeding with Poa annua). […]

Series [4] has as its system established perennial ryegrass (Lolium perenne) seedlings. As to the kind of experiment: Soil-based test with established perennial ryegrass seedlings: tolerance of the ryegrass. It counts as in vivo. The following applies: at a concentration that arrested germination of Poa annua seeds. The protocol: as §1, §2
A short description of series [5]: Solubility of GAF in organic solvents. It counts as physicochemical. The protocol: Further characterization of GAF described its size and solubility, as well as the stability of its activity over time and under varying temperature and pH conditions (see Banowetz et al., Biological Control, 50: 103-110, 2009; which is hereby incorporated by reference). […] GAF activity in culture filtrates stored at 4° C. diminishes over time, with 10% activity remaining after 17 months.
We have termed this compound a Germination Arrest Factor (GAF), and we have identified this compound as 2-amino-4-formylaminooxy-but-3-enoic acid (also called 2-amino-4-formylaminooxyvinylglycine). The presence of this compound in culture filtrates of Pseudomonas can be assessed by extraction and chromatography procedures described in Example 1. […] Moreover, GAF has particular chromatographic properties that allow it to be detected in the culture filtrates of GAF-producing organisms as a distinctive ninhydrin-staining band located at a particular position on thin-layer chromatography plates when the extraction and chromatography protocols specified here are followed. […] The presence of a DNA sequence that codes for an open reading frame that is distinctive for a particular putative formyl-transferase.

In series [6] the test system is seeds of grassy weeds and cultivated grasses. Description: Germination arrest / herbicidal activity against grassy weeds (general statements). The following applies: in vivo.
The test system of series [7] is seeds of cereals (wheat and barley) and dicots. As to the kind of experiment: Germination of seeds of cereals and dicots in presence of GAF. In kind it is in vivo. As to conditions: compared with seeds of grass species.
The test system of a further series is Established seedlings. As to the kind of experiment: Sensitivity of established seedlings to GAF. The following applies: in vivo.
For series [8] the following is noted: cited from earlier work.
The mark [9] stands for this setting: exposure limited to a few hours.

As to `NOCC(=O)O` [AOA, 2-Aminooxyacetic acid, reference compound], the “GERMINATION SCORE IN THE POA BIOASSAY (±Standard Error of the Mean)” value in series [1] (concentration tested 0.03 mM) is given as 2.5 ± 0.1; in series [1] (concentration tested 0.1 mM), 1.7 ± 0.1; in series [1] (concentration tested 0.3 mM), 1.2 ± 0.1; in [1] (concentration tested 1.0 mM) it was 1.0 ± 0.0; in [1] (concentration tested 3.0 mM) it was 1.0 ± 0.0; in series [1] (concentration tested 10.0 mM), 1.0 ± 0.0. Moreover, the “GERMINATION SCORE IN THE POA BIOASSAY (±Standard Error of the Mean)” value in series [1] (concentration tested 30.0 mM) was 0.9 ± 0.1. Besides, in series [1], the “GAF-like activity in the Standard Poa Bioassay System, in words” value was “arrested the germination”. In addition, in the series on Poa annua seeds [2], the “effect on germination of seeds of Poa annua in a soil-based system” value is “arrested germination”. Besides, the “germination of Poa annua seeds seeded between rows of established ryegrass” value in the series with Poa annua seeds [3] was “arrested as expected”. Besides, the “effect on established perennial ryegrass seedlings” value in [4] is “some damage was evident”.
Regarding `NCCOC=CC(N)C(=O)O` (stereo not drawn) [AVG, 2-amino-4-aminoethoxy-but-3-enoic acid, reference compound], the “GERMINATION SCORE IN THE POA BIOASSAY (±Standard Error of the Mean)” value in [1] (concentration tested 0.03 mM) came to 2.3 ± 0.1; in series [1] (concentration tested 0.1 mM), 1.3 ± 0.1; in series [1] (concentration tested 0.3 mM) it was 1.0 ± 0.0; in [1] (concentration tested 1.0 mM), 1.0 ± 0.0; in [1] (concentration tested 3.0 mM), 1.0 ± 0.0; in series [1] (concentration tested 10.0 mM) it was 1.0 ± 0.0. The “GERMINATION SCORE IN THE POA BIOASSAY (±Standard Error of the Mean)” value in [1] (concentration tested 30.0 mM) stood at 0.9 ± 0.1. Also, the “GAF-like activity in the Standard Poa Bioassay System, in words” value in series [1] is recorded as “arrested the germination”. Besides, in the series with Poa annua seeds [2], the “effect on germination of seeds of Poa annua in a soil-based system” value is given as “arrest germination”. Further, in the series with Poa annua seeds [3], the “germination of Poa annua seeds seeded between rows of established ryegrass” value is given as “completely arrested germination”. In addition, the “effect on established perennial ryegrass seedlings” value in series [4] was “little if any effect”.
With `NC(/C=C/ONC=O)C(=O)O` (stereo not drawn) [GAF, 2-amino-4-formylaminooxy-but-3-enoic acid], the “POA BIOASSAY SCORES (±Standard Error of the Mean)” value in series [1] (GAF Conc. 2X (relative to culture filtrate), partially purified GAF, metal 0 μM) is on record as 1.00 ± 0.00. Also, in series [1] (appropriate concentrations of copper ions), the “activity of GAF in arresting germination in the presence of copper ions” value is “greatly reduced”. For the same compound, the “GERMINATION SCORE” value worked out at 1.00 in series [1] (pooled Sephadex G15 fractions, Undiluted Pooled Volume (100%)); 1.92 in series [1] (1.25% Pooled Volume Concentration); 1.00 in [1] (2.5% Pooled Volume Concentration); 1.00 in [1] (5% Pooled Volume Concentration); 1.00 in series [1] (10% Pooled Volume Concentration). Further, in [5], the “solubility in organic solvents” value is “insoluble or sparingly soluble in organic solvents; also recorded: insoluble in organic solvents that are immiscible in water”. Moreover, the “activity against grassy weeds, in words” value in series [6] was “irreversibly arrests the germination”. The “germination of seeds of cereals (wheat and barley) and dicots” value in series [7] was “much less sensitive to GAF”. In addition, the “sensitivity of established seedlings to GAF” value in the series on Established seedlings is “little if any sensitivity”. The GAF activity remaining in series [8] (culture filtrates stored at 4° C., after 17 months) is listed as 10%. Also, the “activity under basic as well as acidic conditions” value in series [8] (setting [9]) is “remains active”. Moreover, in series [8] (setting [9]), the “temperature at which GAF remains active” value is “up to 65 °C”.
